How the values were obtained:
Format in all cases: in vivo
[1] = test system: GOSHI, Cotton, Gossypium hirsutum, L.; assay: Postemergence herbicidal evaluation; conditions: crop (cotton)
Procedure: The postemergence herbicidal activity of the compounds of the present invention is evaluated by the following tests. Seedling plants are grown in jiffy flats for about two weeks. The test compounds are dispersed in 80/20 (v/v) acetone/water mixtures containing 1.0% SUN-IT®II, a methylated seed oil, in sufficient quantities to provide the equivalent of about 0.006 kg/ha to 0.800 kg/ha of active compound when applied to the plants through a spray nozzle operating at 40 psi for a predetermined time. After spraying, the plants are placed on greenhouse benches and are cared for in accordance with conventional greenhouse procedures. Approximately two to three weeks after treatment, the seedling plants are examined and rated according to the rating system set forth below. Where more than one test is involved for a given compound, the data are averaged.

[2] = test system: ORYSAT, Rice, Tebonnet, Oryza sativa, (L.) Tebonnet; assay: Preemergence herbicidal evaluation; conditions: crop (rice)
Description: (§1) The preemergence herbicidal activity of the test compounds of the present invention is exemplified by the following tests in which the seeds of a variety of monocotyledonous and dicotyledonous plants are separately mixed with potting soil and planted on top of approximately one inch of soil in separate pint cups. After planting, the cups are sprayed with the selected aqueous acetone solution containing test compound in sufficient quantity to provide the equivalent of about 0.0125 kg/ha to 0.800 kg/ha of test compound per cup. The treated cups are then placed on greenhouse benches, watered and cared for in accordance with conventional greenhouse procedures. Approximately two to four weeks after treatment, the tests are terminated and each cup is examined and rated according to the rating system provided in Example 12. When more than one test is performed for a given compound, the data are averaged.

[3] = test system: PANDI, Panicum, Fall, Panicum dichotomiflorum, Michx; assay: Preemergence herbicidal evaluation
Description: as §1

[4] = test system: SETVI, Foxtail, Green, Setaria viridis, (L.) Beau; assay: Preemergence herbicidal evaluation
Description: as §1

[5] = test system: IPOSS, Morningglory spp., Ipomoea spp.; assay: Preemergence herbicidal evaluation
Description: as §1

[6] = test system: GOSHI, Cotton, Gossypium hirsutum, L.; assay: Preemergence herbicidal evaluation; conditions: crop (cotton)
Description: as §1

[7] = test system: ZEAMX, Corn, Field, Zea mays, L.; assay: Preemergence herbicidal evaluation; conditions: crop (corn)
Description: as §1

[8] = test system: ABUTH, Velvetleaf, Abutilon theophrasti, Medic.; assay: Preemergence herbicidal evaluation
Description: as §1

[9] = test system: ECHCG, Barnyardgrass, Echinochloa crus-galli, (L.) Beau; assay: Preemergence herbicidal evaluation
Description: as §1

[10] = test system: AMBEL, Ragweed, Ambrosia artemisifolia, L.; assay: Preemergence herbicidal evaluation
Description: as §1

[11] = test system: CHEAL, Lambsquarters, Chenopodium album, L.; assay: Preemergence herbicidal evaluation
Description: as §1

[12] = test system: ORYSAT, Rice, Tebonnet, Oryza sativa, (L.) Tebonnet; assay: Postemergence herbicidal evaluation; conditions: crop (rice)
Method in brief: (§2)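 Visual scores, averaged where a compound was tested more than once, come from plants assessed about 2–3 weeks after spraying. Treatment used a 40 psi nozzle, delivering roughly 0.006 to 0.800 kg/ha of compound in aqueous acetone (80/20) carrying 1.0% methylated seed oil, onto seedlings about two weeks old.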

[13] = test system: PANDI, Panicum, Fall, Panicum dichotomiflorum, Michx; assay: Postemergence herbicidal evaluation
Method in brief: as §2

[14] = test system: SETVI, Foxtail, Green, Setaria viridis, (L.) Beau; assay: Postemergence herbicidal evaluation
Method in brief: as §2

[15] = test system: IPOSS, Morningglory spp., Ipomoea spp.; assay: Postemergence herbicidal evaluation
Method in brief: as §2

[16] = test system: ZEAMX, Corn, Field, Zea mays, L.; assay: Postemergence herbicidal evaluation; conditions: crop (corn)
Method in brief: as §2

[17] = test system: ABUTH, Velvetleaf, Abutilon theophrasti, Medic.; assay: Postemergence herbicidal evaluation
Method in brief: as §2

[18] = test system: ECHCG, Barnyardgrass, Echinochloa crus-galli, (L.) Beau; assay: Postemergence herbicidal evaluation
Method in brief: as §2

[19] = test system: AMBEL, Ragweed, Ambrosia artemisifolia, L.; assay: Postemergence herbicidal evaluation
Method in brief: as §2

[20] = test system: CHEAL, Lambsquarters, Chenopodium album, L.; assay: Postemergence herbicidal evaluation
Method in brief: as §2

SMILES: CCCS/C(=C1/C=NN(CC)C1=O)c1ccc2c(c1C)/C(=N/OC)CCS2(=O)=O [Example 8b, 1-Ethyl-4-[(Z)-(5-methyl-4-oxothiochroman-6-yl)(propythio)methylene]-2-pyrazolin-5-one 4′-[(E)-O-methyloxime], S,S-dioxide]
- Herbicide rating GOSHI ([1]; 0.0500 kg/ha): 0.0
- Herbicide rating GOSHI ([1]; 0.1000 kg/ha): 0.0
- Herbicide rating GOSHI ([1]; 0.2000 kg/ha): 0.0
- Herbicide rating GOSHI ([1]; 0.4000 kg/ha): 4.0
- Herbicide rating GOSHI ([1]; 0.8000 kg/ha): 4.5
- Herbicide rating ORYSAT ([2]; 0.2000 kg/ha): 0.0
- Herbicide rating ORYSAT ([2]; 0.4000 kg/ha): 0.0
- Herbicide rating ORYSAT ([2]; 0.8000 kg/ha): 0.0
- Herbicide rating PANDI ([3]; 0.2000 kg/ha): 2.0
- Herbicide rating PANDI ([3]; 0.4000 kg/ha): 7.0
- Herbicide rating PANDI ([3]; 0.8000 kg/ha): 7.0
- Herbicide rating SETVI ([4]; 0.2000 kg/ha): 3.0
- Herbicide rating SETVI ([4]; 0.4000 kg/ha): 0.0
- Herbicide rating SETVI ([4]; 0.8000 kg/ha): 3.0
- Herbicide rating IPOSS ([5]; 0.2000 kg/ha): 0.0
- Herbicide rating IPOSS ([5]; 0.4000 kg/ha): 0.0
- Herbicide rating IPOSS ([5]; 0.8000 kg/ha): 0.0
- Herbicide rating GOSHI ([6]; 0.2000 kg/ha): 0.0
- Herbicide rating GOSHI ([6]; 0.4000 kg/ha): 0.0
- Herbicide rating GOSHI ([6]; 0.8000 kg/ha): 0.0
- Herbicide rating ZEAMX ([7]; 0.2000 kg/ha): 0.0
- Herbicide rating ZEAMX ([7]; 0.4000 kg/ha): 0.0
- Herbicide rating ZEAMX ([7]; 0.8000 kg/ha): 0.0
- Herbicide rating ABUTH ([8]; 0.2000 kg/ha): 0.0
- Herbicide rating ABUTH ([8]; 0.4000 kg/ha): 0.0
- Herbicide rating ABUTH ([8]; 0.8000 kg/ha): 9.0
- Herbicide rating ECHCG ([9]; 0.2000 kg/ha): 0.0
- Herbicide rating ECHCG ([9]; 0.4000 kg/ha): 0.0
- Herbicide rating ECHCG ([9]; 0.8000 kg/ha): 0.0
- Herbicide rating AMBEL ([10]; 0.2000 kg/ha): 0.0
- Herbicide rating AMBEL ([10]; 0.4000 kg/ha): 3.0
- Herbicide rating AMBEL ([10]; 0.8000 kg/ha): 6.0
- Herbicide rating CHEAL ([11]; 0.2000 kg/ha): 6.0
- Herbicide rating CHEAL ([11]; 0.4000 kg/ha): 7.0
- Herbicide rating CHEAL ([11]; 0.8000 kg/ha): 9.0
- Herbicide rating ORYSAT ([12]; 0.0500 kg/ha): 1.0
- Herbicide rating ORYSAT ([12]; 0.1000 kg/ha): 1.7
- Herbicide rating ORYSAT ([12]; 0.2000 kg/ha): 3.5
- Herbicide rating ORYSAT ([12]; 0.4000 kg/ha): 1.5
- Herbicide rating ORYSAT ([12]; 0.8000 kg/ha): 3.5
- Herbicide rating PANDI ([13]; 0.0500 kg/ha): 2.0
- Herbicide rating PANDI ([13]; 0.1000 kg/ha): 6.0
- Herbicide rating PANDI ([13]; 0.2000 kg/ha): 7.0
- Herbicide rating PANDI ([13]; 0.4000 kg/ha): 7.0
- Herbicide rating PANDI ([13]; 0.8000 kg/ha): 6.0
- Herbicide rating SETVI ([14]; 0.0500 kg/ha): 3.5
- Herbicide rating SETVI ([14]; 0.1000 kg/ha): 3.5
- Herbicide rating SETVI ([14]; 0.2000 kg/ha): 4.0
- Herbicide rating SETVI ([14]; 0.4000 kg/ha): 9.0
- Herbicide rating SETVI ([14]; 0.8000 kg/ha): 9.0
- Herbicide rating IPOSS ([15]; 0.0500 kg/ha): 0.0
- Herbicide rating IPOSS ([15]; 0.1000 kg/ha): 0.0
- Herbicide rating IPOSS ([15]; 0.2000 kg/ha): 0.0
- Herbicide rating IPOSS ([15]; 0.4000 kg/ha): 0.0
- Herbicide rating IPOSS ([15]; 0.8000 kg/ha): 0.0
- Herbicide rating ZEAMX ([16]; 0.0500 kg/ha): 0.0
- Herbicide rating ZEAMX ([16]; 0.1000 kg/ha): 0.0
- Herbicide rating ZEAMX ([16]; 0.2000 kg/ha): 0.0
- Herbicide rating ZEAMX ([16]; 0.4000 kg/ha): 0.0
- Herbicide rating ZEAMX ([16]; 0.8000 kg/ha): 0.0
- Herbicide rating ABUTH ([17]; 0.0500 kg/ha): 1.0
- Herbicide rating ABUTH ([17]; 0.1000 kg/ha): 0.0
- Herbicide rating ABUTH ([17]; 0.2000 kg/ha): 5.0
- Herbicide rating ABUTH ([17]; 0.4000 kg/ha): 5.0
- Herbicide rating ABUTH ([17]; 0.8000 kg/ha): 6.0
- Herbicide rating ECHCG ([18]; 0.0500 kg/ha): 6.5
- Herbicide rating ECHCG ([18]; 0.1000 kg/ha): 8.0
- Herbicide rating ECHCG ([18]; 0.2000 kg/ha): 8.0
- Herbicide rating ECHCG ([18]; 0.4000 kg/ha): 9.0
- Herbicide rating ECHCG ([18]; 0.8000 kg/ha): 9.0
- Herbicide rating AMBEL ([19]; 0.0500 kg/ha): 0.0
- Herbicide rating AMBEL ([19]; 0.1000 kg/ha): 5.0
- Herbicide rating AMBEL ([19]; 0.2000 kg/ha): 7.0
- Herbicide rating AMBEL ([19]; 0.4000 kg/ha): 7.0
- Herbicide rating AMBEL ([19]; 0.8000 kg/ha): 7.0
- Herbicide rating CHEAL ([20]; 0.0500 kg/ha): 7.0
- Herbicide rating CHEAL ([20]; 0.1000 kg/ha): 8.0
- Herbicide rating CHEAL ([20]; 0.2000 kg/ha): 8.0
- Herbicide rating CHEAL ([20]; 0.4000 kg/ha): 9.0
- Herbicide rating CHEAL ([20]; 0.8000 kg/ha): 9.0

Source: US6465395B2, “Substituted methylene pyrazolinones and the herbicidal use thereof” (BASF Aktiengesellschaft, priority 2000, dated 2002)
